The term IC50 denotes the concentration at which inhibition is half-maximal. A word on the LD50: it is the dose expected to kill half of the subjects tested. Read a low LD50 as greater toxicity.

Structures can show the parent of a compound that is named as a salt. Where two headings read alike, the source gives them in different places.

This is an account of results in patent US4234581A, “Thieno[2,3-d]oxazines” (Mead Johnson & Company, priority 1979, dated 1980).

For data set [1], the system named is immunologically induced bronchoconstriction. The data set can be described thus: allergic respiratory model in the rat (immunologically induced bronchoconstriction). Type of data set: in vivo. Particulars: for ED50: 0.25 h, intraduodenal 15 min. prior to egg albumin challenge, half maximal response (ID1/2 max.), table titled Oral.
The test system of data set [2] is passively sensitized rat peritoneal mast cells. The data set can be described thus: antagonism of antigen-induced histamine release from passively sensitized rat peritoneal mast cells. Type of data set: cell-based. Particulars: in vitro; for IC50: Mast cell, egg albumin antigen challenge. An excerpt: The method employed is similar to that described by Kusner, et al., Journal of Pharmacology and Experimental Therapeutics 184, 41-46 (1973). The test involves isolation of mast cells from the rat by lavage of the peritoneal cavity and isolation of the cellular material from the lavage fluid. The cells are sensitized by shaking in antiserum from rats sensitized as described above with respect to the passive cutaneous anaphylaxis test. The sensitized cells are then exposed to the egg albumin antigen and the release of histamine from the cells is measured by an automated fluorometric method. The inhibition of histamine release by the presence of a test compound during challenge of the sensitized cells is a measure of the activity of the test compound. Dose response curves are prepared employing various concentrations of the test substance and the concentration which inhibits histamine release by 50% (IC50) is determined by interpolation.

For data set [3], the system named is passive cutaneous anaphylaxis reaction (PCA) in the rat. Put plainly: passive cutaneous anaphylaxis reaction (PCA) in the rat. Type of data set: in vivo. The method, then: Activity of test compounds in the passive cutaneous anaphylaxis reaction (PCA) in the rat has been shown in the prior art to correlate with the utility of active compounds in the treatment of immediate hypersensitivity conditions such as asthma. Rat reaginic antiserum is prepared substantially according to the method of Mota, Immunology 7, 681-699 (1964) employing male Sprague-Dawley (Carworth Farms) or Wistar (Harlan) rats weighing 100-175 g. which are injected intramuscularly with a solution of egg albumin in saline at a dose of 10 mg. per kg. and intraperitoneally with 2×10^10 Bordetella pertussis organisms. Twelve days after injection, the serum is collected and the antibody titer is determined. The sera are pooled which contain sufficient antibody to cause a 10 mm. spot in the dorsal skin of the rat in the PCA test after dilution 10 fold. The highest dilution of antiserum capable of inducing PCA in the rat 48 to 72 hrs. after injection is normally in the range of 50-80. The selected reaginic anti-sera are stored frozen until use.
For carrying out the test, groups of 5 to 10 male Sprague-Dawley (Carworth Farms) rats, each rat weighing 100-150 g., are used. Forty-eight hours prior to the test, the animals are passively sensitized by intradermal injection of 0.1 ml. of diluted antiserum at various locations on the shaved skin of the back. A dilution of antiserum is used so that a spot following challenge of 20-25 mm. in diameter is obtained. […] A latent period of 48 hrs. is usually allowed before the animals are challenged. According to the usual screening procedure, 15 min. prior to challenge the test drug is administered either by intraperitoneal injection, intravenous injection, or orally by gavage. Challenge involves an intravenous injection of a dose of 25 mg./kg. of egg albumin and 25 mg./kg. of Evans' blue dye in saline. The dye serves simply as a marker. The response of the antigen challenge in the localities on the skin which have been previously sensitized results in increased capillary permeability at the sensitized site and leakage of the blue dye into the area surrounding the sensitized site. The PCA response is scored by measuring the mean spot diameter on the excised and reversed skin 20-30 min. after challange. In each experiment a group of control animals receiving no drug is employed. The percent inhibition of the PCA is calculated by determining the mean diameters of the spots in the control and treated animals and computing the difference between the squares of the mean diameters of the control animals and the treated animals and expressing this difference as a percentage of the square of the mean diameter of the control animals. Results are expressed as percent inhibition.
Rats may be injected intradermally with 0.1 ml. of a solution containing 1 mg./ml. histamine 10 min. prior to sacrificing. This permits a determination of whether the test compound is exerting an antihistaminic effect on the end organ rather than interfering with mediator release from the mast cells in inhibiting the PCA.
Various doses of test compound in parallel experiments are employed when a dose response curve is to be constructed for quantitative comparison of potencies among active compounds. The ID50, the dose at which 50% inhibition of the PCA occurs, is determined by interpolation. In other modifications, various time intervals are allowed between drug treatment and challenge to ascertain the duration of drug effect.

A short description of data set [4]: Acute oral toxicity in the rat. Particulars: in vivo. An excerpt: | *Acute oral toxicity in the rat.
The mark [5] stands for this setting: range for Procedures 2, 3 and 36, read-out: IC50, inhibition of histamine release.
[6] abbreviates: 0.25 h, oral, rat, drug 15 min. prior to challenge, 50% inhibition of PCA, read-out: PCA Response (ID50, mg./kg.).
The mark [7] stands for this setting: Rat2, oral, rat, 2 hr. interval between drug dosage and challenge, read-out: PCA Response (ID50, mg./kg.).

For `O=C(O)c1cc(=O)c2c(OCC(O)COc3cccc4oc(C(=O)O)cc(=O)c34)cccc2o1` [Cromolyn sodium, reference compound], the “activity on oral administration in allergic respiratory test” value in data set [1] (oral) was “inactive”. In addition, the IC50 in data set [2] (read-out: IC50, inhibition of histamine release) was determined as 1000 nM. For the same molecule, in data set [3] (intravenous, simultaneously with the antigen, rat, read-out: ID50 in the rat PCA test), the ED50 was approximately 1 mg/kg. The “activity on oral administration in PCA test” value in data set [3] (oral, rat) is “inactive”.
For `CCOC(=O)c1nc2sc3c(c2c(=O)[nH]1)CCCC3` [Procedure 2, ETHYL 3,4,5,6,7,8-HEXAHYDRO-4-OXOBENZOTHIENO[2,3-d]PYRIMIDINE-2-CARBOXYLATE], the ED50 in data set [1] was 3.8 mg/kg; in data set [3] (setting [6]), 15.4 mg/kg. In data set [2] (setting [5]), the IC50 was in the range of 300 to 800 nM. Also, in data set [2], the “potency in histamine release test relative to cromolyn sodium” value is on record as “substantially more potent than cromolyn sodium”. In data set [4], this molecule yielded an LD50 of more than 3160 mg/kg.
On to `O=C(O)c1nc2sc3c(c2c(=O)[nH]1)CCCC3` [Procedure 3, 3,4,5,6,7,8-HEXAHYDRO-4-OXOBENZOTHIENO[2,3-d]-PYRIMIDINE-2-CARBOXYLIC ACID DISODIUM SALT DIHYDRATE], for which the IC50 in data set [2] (setting [5]) fell in the range of 300 to 800 nM. Besides, in data set [2], the “potency in histamine release test relative to cromolyn sodium” value is “substantially more potent than cromolyn sodium”.
For `CCOC(=O)c1nc2sc(CC)c(C)c2c(=O)[nH]1` [Procedure 27, ETHYL 6-ETHYL-3,4-DIHYDRO-5-METHYL-4-OXOTHIENO[2,3-d]PYRIMIDINE-2-CARBOXYLATE], in data set [3] (setting [6]), the ED50 came to 11.4 mg/kg.
The same measure, in the same setting: next, `CCOC(=O)c1nc2sc(CC(C)C)c(C)c2c(=O)[nH]1` [Procedure 28, ETHYL 3,4-DIHYDRO-5-METHYL-6-(2-METHYLPROPYL)-4-OXOTHIENO[2,3-d]PYRIMIDINE-2-CARBOXYLATE]: less than 5 mg/kg.
`CCOC(=O)c1nc2sc(CC)cc2c(=O)[nH]1` [Procedure 29, ETHYL 6-ETHYL-3,4-DIHYDRO-4-OXOTHIENO[2,3-d]PYRIMIDINE-2-CARBOXYLATE]: the ED50 is 1 mg/kg in data set [1] and 3.1 mg/kg in data set [3] (setting [6]). Moreover, the LD50 in data set [4] fell in the range of 1600 to 5000 mg/kg.
For `CCCCCCc1sc2nc(C(=O)O)[nH]c(=O)c2c1C` [Procedure 36, 6-HEXYL-3,4-DIHYDRO-5-METHYL-4-OXOTHIENO[2,3-d]PYRIMIDINE-2-CARBOXYLIC ACID DISODIUM SALT HYDRATE], the IC50 in data set [2] (setting [5]) is 300 to 800 nM. In data set [2], the “potency in histamine release test relative to cromolyn sodium” value was “substantially more potent than cromolyn sodium”. For the same molecule, the ED50 in data set [3] (setting [6]) is 15 mg/kg.
For `Cc1c(CC(C)C)sc2nc(C(=O)O)[nH]c(=O)c12` [Procedure 43, 3,4-DIHYDRO-5-METHYL-6-(2-METHYLPROPYL)-4-OXOTHIENO[2,3-d]PYRIMIDINE-2-CARBOXYLIC ACID DISODUM SALT SESQUIHYDRATE], the ED50 in data set [3] (setting [6]) turned out to be 6.7 mg/kg.
Still for that read-out and setting: next, `CCc1cc2c(=O)[nH]c(C(=O)O)nc2s1` [Procedure 44, 6-ETHYL-3,4-DIHYDRO-4-OXOTHIENO[2,3-d]PYRIMIDINE-2-ARBOXYLIC ACID DISODIUM SALT DIHYDRATE]: 13 mg/kg.
As to `Cc1c(CC(C)C)sc2nc(CO)[nH]c(=O)c12` [Procedure 53, 2-(HYDROXYMETHYL)-5-METHYL-6-(2-METHYLPROPYL)THIENO[2,3-d]PYRIMIDINE-4-(3H)-ONE], the ED50 in data set [3] (setting [7]) worked out at 28 mg/kg.
Take `O=c1[nH]c(CO)nc2sc3c(c12)CCCC3` [Procedure 55, 5,6,7,8-TETRAHYDRO-2-(HYDROXYMETHYL)BENZOTHIENO[2,3-d]-4(3H)-PYRIMIDINONE]: in data set [3] (setting [7]), the ED50 amounted to 34 mg/kg.
As for `CCCCCCc1sc2nc(CO)[nH]c(=O)c2c1C` [Procedure 56, 6-HEXYL-2-(HYDROXYMETHYL)-5-METHYLTHIENO[2,3-d]PYRIMIDINE-4-(3H)-ONE], the ED50 in data set [3] (setting [6]) is 28 mg/kg.
For the molecule `CCOC(=O)C(=O)Nc1sccc1C(N)=O` [Procedure 83, Ethyl N-[3-(Aminocarbonyl)thien-2-yl]oxamate], in data set [3] (oral, rat, read-out: oral ED50 in the rat PCA test for antiallergic activity), the ED50 was 4.5 mg/kg.
Turning to `Cc1c(CC(C)C)sc2nc(C(=O)O)[nH]c(=O)c12` [Procedure 97, 3,4-Dihydro-5-methyl-6-(2-methylpropyl)-4-oxothieno[2,3-d]pyrimidine-2-carboxylic Acid Dipotassium Salt], the ED50 is 0.14 mg/kg in data set [3] (Rattus norvegicus, intravenous, rats, read-out: ID50 in the PCA test, intravenous) and 2.7 mg/kg in data set [3] (Rattus norvegicus, oral, rats, read-out: ID50 in the PCA test, oral).
